Assay [1] relates to Plasmodium berghei. The experiment in a line: Antimalarial activity against Plasmodium berghei NK65 infected in BALB/c mouse assessed as inhibition of parasitemia at 50 mg/kg, po qd for 4 days measured on 5th day after parasite inoculation by Giemsa staining based microscopy relative to control. In kind it is functional. As to conditions: 96 h.
The subject of assay [2] is Plasmodium berghei. Description: Antimalarial activity against Plasmodium berghei NK65 infected in BALB/c mouse assessed as inhibition of parasitemia at 25 mg/kg, po qd for 4 days measured on 5th day after parasite inoculation by Giemsa staining based microscopy relative to control. Conditions: 96 h. In kind it is functional.
In assay [3] the test system is Plasmodium berghei. Description: Antimalarial activity against Plasmodium berghei NK65 infected in BALB/c mouse assessed as inhibition of parasitemia at 25 mg/kg, sc qd for 4 days measured on 5th day after parasite inoculation by Giemsa staining based microscopy relative to control. Type of assay: functional. Conditions: 96 h.
In assay [4] the test system is Plasmodium berghei. The experiment in a line: Antimalarial activity against Plasmodium berghei NK65 infected in BALB/c mouse assessed as inhibition of parasitemia at 50 mg/kg, po qd for 4 days measured on 7th day after parasite inoculation by Giemsa staining based microscopy relative to control. As to conditions: 96 h. In kind it is functional.
The subject of assay [5] is Plasmodium berghei. Description: Antimalarial activity against Plasmodium berghei NK65 infected in BALB/c mouse assessed as inhibition of parasitemia at 25 mg/kg, po qd for 4 days measured on 7th day after parasite inoculation by Giemsa staining based microscopy relative to control. In kind it is functional. As to conditions: 96 h.
Assay [6] deals with Plasmodium berghei. The experiment in a line: Antimalarial activity against Plasmodium berghei NK65 infected in BALB/c mouse assessed as inhibition of parasitemia at 50 mg/kg, sc qd for 4 days measured on 5th day after parasite inoculation by Giemsa staining based microscopy relative to control. In kind it is functional. As to conditions: 96 h.
In assay [7] the test system is Plasmodium berghei. The experiment in a line: Antimalarial activity against Plasmodium berghei NK65 infected in BALB/c mouse assessed as inhibition of parasitemia at 50 mg/kg, sc qd for 4 days measured on 7th day after parasite inoculation by Giemsa staining based microscopy relative to control. In kind it is functional. As to conditions: 96 h.
Assay [8] relates to Plasmodium berghei. The experiment in a line: Antimalarial activity against Plasmodium berghei NK65 infected in BALB/c mouse assessed as inhibition of parasitemia at 25 mg/kg, sc qd for 4 days measured on 7th day after parasite inoculation by Giemsa staining based microscopy relative to control. Type of assay: functional. Conditions: 96 h.
Assay [9] has as its system Plasmodium berghei. The experiment in a line: Antimalarial activity against Plasmodium berghei NK65 infected in BALB/c mouse assessed as mean survival time at 50 mg/kg, po qd for 4 days (reference value: 22 +/- 3 days). In kind it is functional.
The subject of assay [10] is Plasmodium berghei. Description: Antimalarial activity against Plasmodium berghei NK65 infected in BALB/c mouse assessed as mean survival time at 25 mg/kg, po qd for 4 days (reference value: 22 +/- 3 days). In kind it is functional.
Assay [11] deals with Plasmodium berghei. The experiment in a line: Antimalarial activity against Plasmodium berghei NK65 infected in BALB/c mouse assessed as mean survival time at 50 mg/kg, sc qd for 4 days (reference value: 23 +/- 4 days). Type of assay: functional.
Assay [12] deals with Plasmodium berghei. The experiment in a line: Antimalarial activity against Plasmodium berghei NK65 infected in BALB/c mouse assessed as mean survival time at 25 mg/kg, sc qd for 4 days (reference value: 23 +/- 4 days). Type of assay: functional.
Assay [13] deals with Plasmodium berghei. Description: Antimalarial activity against Plasmodium berghei NK65 infected in BALB/c mouse assessed as inhibition of parasitemia at 5 mg/kg, po qd for 4 days measured on 7th day after parasite inoculation by Giemsa staining based microscopy relative to control. In kind it is functional. As to conditions: 96 h.
Assay [14] concerns Plasmodium berghei. Description: Antimalarial activity against Plasmodium berghei NK65 infected in BALB/c mouse assessed as inhibition of parasitemia at 5 mg/kg, sc qd for 4 days measured on 5th day after parasite inoculation by Giemsa staining based microscopy relative to control. Type of assay: functional. As to conditions: 96 h.
Assay [15] deals with Plasmodium berghei. The experiment in a line: Antimalarial activity against Plasmodium berghei NK65 infected in BALB/c mouse assessed as inhibition of parasitemia at 5 mg/kg, sc qd for 4 days measured on 7th day after parasite inoculation by Giemsa staining based microscopy relative to control. In kind it is functional. Conditions: 96 h.
Assay [16] relates to Plasmodium berghei. The experiment in a line: Antimalarial activity against Plasmodium berghei NK65 infected in BALB/c mouse assessed as mean survival time at 5 mg/kg, po qd for 4 days (reference value: 22 +/- 3 days). Type of assay: functional.
For assay [17], the system named is Plasmodium berghei. Description: Antimalarial activity against Plasmodium berghei NK65 infected in BALB/c mouse assessed as mean survival time at 5 mg/kg, sc qd for 4 days (reference value: 23 +/- 4 days). In kind it is functional. Conditions: 96 h.
Assay [18] deals with Plasmodium berghei. The experiment in a line: animal or person. Conditions: NK65, in Mus musculus, po, 96 h, read-out: INH.
Description: Antimalarial activity against Plasmodium berghei NK65 infected in BALB/c mouse assessed as inhibition of parasitemia at 5 mg/kg, po qd for 4 days measured on 5th day after parasite inoculation by Giemsa staining based microscopy relative to control

As for `CC(C)=C[C@H](O)C[C@@H](C)[C@H]1CC[C@@]2(C)[C@@H]3[C@@H](O[C@@H]4O[C@H](CO)[C@@H](O)[C@@H](O)[C@H]4O)C=C4[C@@H](CC[C@H](O)C4(C)C)[C@]3(C)CC[C@]12C` [BALSAMINOSIDE B], the inhibition in vivo at 50 mg/kg was found to be 36.2% in the assay with Plasmodium berghei [1], 8.6% in the assay on Plasmodium berghei [4], 37.1% in the assay with Plasmodium berghei [6] and 5.5% in the assay on Plasmodium berghei [7]. Also, the inhibition in vivo at 25 mg/kg in the assay with Plasmodium berghei [2] came out at 23.9%; with Plasmodium berghei [3], 12.5%; in the assay with Plasmodium berghei [5], 0%; with Plasmodium berghei [8] it was 0%. Moreover, the MST in the assay with Plasmodium berghei [9] amounted to 23 days; with Plasmodium berghei [10], 21 days; in the assay with Plasmodium berghei [11], 21 days; in the assay with Plasmodium berghei [12], 20 days.

For `CCN(CC)CCCC(C)Nc1ccnc2cc(Cl)ccc12` (centres undefined) [CHLOROQUINE], the inhibition in vivo at 5 mg/kg with Plasmodium berghei [13] is 98%; with Plasmodium berghei [14] it was 99%; with Plasmodium berghei [15], 99%; in the assay with Plasmodium berghei [18], 100%. Moreover, the mean survival time at 5 mg/kg in the assay with Plasmodium berghei [16] and with Plasmodium berghei [17] was over 40 days in each case.

Consider `CO[C@H]1C=C2[C@@H](CC[C@H](O)C2(C)C)[C@]2(C)CC[C@]3(C)[C@@H]([C@H](C)C[C@@H](O)C=C(C)C)CC[C@@]3(C)[C@H]12` [KARAVELAGENIN C], for which the inhibition in vivo at 50 mg/kg with Plasmodium berghei [1] was 33.1%; with Plasmodium berghei [4], 3.4%; in the assay with Plasmodium berghei [6] it was 18.6%; in the assay with Plasmodium berghei [7] it was 1%. For the same compound, the inhibition in vivo at 25 mg/kg in the assay with Plasmodium berghei [2] is 22.7%; in the assay with Plasmodium berghei [3], 21.3%; in the assay with Plasmodium berghei [5] it was 0%; in the assay with Plasmodium berghei [8], 0%. Besides, the MST was determined as 22 days in the assay on Plasmodium berghei [9], 21 days with Plasmodium berghei [10], 22 days in the assay on Plasmodium berghei [11] and 23 days in the assay on Plasmodium berghei [12].

For `CO[C@H]1C=C2[C@@H](CC[C@H](OC(C)=O)C2(C)C)[C@]2(C)CC[C@]3(C)[C@@H]([C@H](C)C[C@H](C=C(C)C)OC(C)=O)CC[C@@]3(C)[C@H]12` [KARAVOATE B], the inhibition in vivo at 50 mg/kg in the assay on Plasmodium berghei [1] stood at 58.1%; in the assay on Plasmodium berghei [4] it was 25.6%; in the assay on Plasmodium berghei [6], 55.2%; in the assay on Plasmodium berghei [7], 28.4%. Also, the inhibition in vivo at 25 mg/kg with Plasmodium berghei [2] came out at 41.8%; in the assay on Plasmodium berghei [3], 39.2%; with Plasmodium berghei [5], 13.2%; in the assay with Plasmodium berghei [8], 10.1%. Also, the MST in the assay with Plasmodium berghei [9] came out at 23 days; in the assay on Plasmodium berghei [10], 21 days; in the assay on Plasmodium berghei [11] it was 24 days; in the assay with Plasmodium berghei [12], 20 days.

Turning to `CCC(=O)O[C@H]1CC[C@@H]2C(=C[C@H](OC)[C@@H]3[C@@]2(C)CC[C@]2(C)[C@@H]([C@H](C)C[C@H](C=C(C)C)OC(=O)CC)CC[C@@]32C)C1(C)C` [KARAVOATE D], the inhibition in vivo at 50 mg/kg in the assay on Plasmodium berghei [1] came out at 45.5%; in the assay on Plasmodium berghei [4] it was 11.5%; in the assay with Plasmodium berghei [6] it was 42.5%; with Plasmodium berghei [7], 10.5%. For the same compound, the inhibition in vivo at 25 mg/kg came to 12.3% with Plasmodium berghei [2], 11.9% with Plasmodium berghei [3], 0% in the assay on Plasmodium berghei [5] and 0% in the assay on Plasmodium berghei [8]. In addition, the MST in the assay on Plasmodium berghei [9] amounted to 24 days; in the assay with Plasmodium berghei [10] it was 23 days; in the assay with Plasmodium berghei [11], 24 days; in the assay with Plasmodium berghei [12] it was 22 days.

(Values after ChEMBL document CHEMBL3616477, “In vivo evaluation of isolated triterpenes and semi-synthetic derivatives as antimalarial agents” (2015).)
